# Data taken from patent US8278337B2, “Substituted pyridines that are JNK inhibitors” (Merck Sharp & Dohme, priority 2006, dated 2012).
# “And” between values parts separate entries of the source, which are not always exact repeats. Equal values may be shown once.
# Molecular target: JNK1 (Homo sapiens, UniProt P45983)
# Assay: DELFIA kinase assay, JNK1
# Type: biochemical
# Details: DELFIA assay, 2 nM JNK1, 7 uM ATP, 10 min pre-incubation
# Protocol: Assay DELFIA (Dissociation Enhanced Lanthanide Fluorescence Immuno-Assay) Assay:
# Before initiation of kinase reactions, compounds were pre-incubated with the enzyme for 10 minutes. Pre-incubation reactions contained 50 mM HEPES pH 7.3, 10 mM MgCl2, 1 mM DTT, 75 mM NaCl, 1 mM EDTA, 1 mM EGTA, 0.01% CHAPS, 2 nM JNK1, 6 ug/mL biotinylated GST-ATF2, 0.1 mg/ml BSA, 5% DMSO and 0-100 μM compound in a total volume of 40 μL. After a 10 minute room temperature pre-incubation, 10 μL of 35 μM ATP was added to start the reaction (final concentration of ATP=7 uM). Reactions were incubated at room temperature for 30 minutes. A small aliquot (10 uL) was taken and quenched by adding into 190 uL of DELFIA Assay buffer containing 100 mM EDTA. The amount of phosphate transferred to biotinylated GST-ATF2 was measured using the Dissociation Enhanced Lanthanide Fluorescence Immuno-assay (DELFIA) from Perkin Elmer according to manufacturers protocol. Briefly, biotinylated GST-ATF2 was captured on streptavidin coated plates for 1 hour, washed twice, then incubated for 1 hour with a 1:1000 dilution of rabbit-anti-phospho-ATF2 antibody and a 1:3500 dilution of Europium-labeled anti-rabbit secondary antibody. Free antibody was removed with six washes, Europium was dissociated from the antibody, and Europium fluorescence was measured using an excitation wavelength of 340 nm and an emission wavelength of 615 nm. JNK2 and JNK3 kinase reactions were carried out similarly, with the exception that the final concentration of ATP was 4 uM and 2 uM, respectively.
# Sequence of JNK1 (P45983 whole entry, species assumed): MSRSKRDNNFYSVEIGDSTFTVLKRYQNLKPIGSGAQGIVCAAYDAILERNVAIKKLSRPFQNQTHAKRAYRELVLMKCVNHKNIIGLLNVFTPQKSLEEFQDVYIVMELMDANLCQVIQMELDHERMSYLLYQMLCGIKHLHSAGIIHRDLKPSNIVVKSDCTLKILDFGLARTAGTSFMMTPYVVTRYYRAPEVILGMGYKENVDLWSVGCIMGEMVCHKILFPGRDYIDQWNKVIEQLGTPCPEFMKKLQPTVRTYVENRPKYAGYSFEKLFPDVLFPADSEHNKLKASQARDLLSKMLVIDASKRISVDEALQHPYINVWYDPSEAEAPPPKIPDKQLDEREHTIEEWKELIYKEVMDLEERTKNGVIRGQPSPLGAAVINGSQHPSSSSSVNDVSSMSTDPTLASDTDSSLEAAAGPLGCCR
row,IC50 [nM],Structure (SMILES)
1,8,Cc1nc2ccc(-n3cc(CNC(=O)c4cccc(C(=O)NC(C)C)n4)cn3)cc2n1C(C)C [Compound 228]
2,4,CC(C)NC(=O)c1cccc(C(=O)NCc2cnn(-c3ccc(S(=O)(=O)N(C)C)c(Cl)c3)c2)n1 [Compound 246]
3,7,CC(C)NC(=O)c1cccc(C(=O)NCc2cnn(-c3ccc(S(=O)(=O)N4CCNCC4)c(Cl)c3)c2)n1 [Compound 248]

# Same assay, conditions: DELFIA assay, 2 nM JNK1, 7 uM ATP, 10 min pre-incubation; second table; read-out: JNK 1 IC50
row,IC50 [nM],Structure (SMILES)
1,8,Cc1nc2ccc(-n3cc(CNC(=O)c4cccc(C(=O)NC(C)C)n4)cn3)cc2n1C(C)C [Compound 228]
2,7,CC(C)NC(=O)c1cccc(C(=O)NCc2cnn(-c3ccc(S(N)(=O)=O)cc3)c2)n1 [Compound 241]
3,4,CC(C)NC(=O)c1cccc(C(=O)NCc2cnn(-c3ccc(S(=O)(=O)N(C)C)c(Cl)c3)c2)n1 [Compound 246]
4,7,CC(C)NC(=O)c1cccc(C(=O)NCc2cnn(-c3ccc(S(=O)(=O)N4CCNCC4)c(Cl)c3)c2)n1 [Compound 248]

# Same assay, conditions: DELFIA, biotinylated GST-ATF2 substrate, 10 minute pre-incubation, final ATP 7 uM
row,Structure (SMILES),IC50
1,CC(C)NC(=O)c1cccc(C(=O)NCc2ccc(-c3ccc(S(C)(=O)=O)cc3)nc2)n1 [Compound 181],102 to 959 nM
2,CC(C)NC(=O)c1cccc(C(=O)NCc2ccc(-c3cccc(C(F)(F)F)c3)nc2)n1 [Compound 183],102 to 959 nM
3,CC(C)NC(=O)c1cccc(C(=O)NCc2cccc(-c3cccc(C#N)c3)c2)n1 [Compound 189],4 to 97 nM
4,CC(C)NC(=O)c1cccc(C(=O)NCc2cccc(-c3ccc(C#N)cc3)c2)n1 [Compound 190],102 to 959 nM
5,CC(C)NC(=O)c1cccc(C(=O)NCc2cccc(-c3cccc(S(C)(=O)=O)c3)c2)n1 [Compound 191],4 to 97 nM
6,CC(C)NC(=O)c1cccc(C(=O)NCc2cccc(-c3ccc(S(C)(=O)=O)cc3)c2)n1 [Compound 192],4 to 97 nM
7,CC(C)NC(=O)c1cccc(C(=O)NCc2ccc(-c3cccc(S(C)(=O)=O)c3)cc2)n1 [Compound 193],4 to 97 nM
8,CC(C)NC(=O)c1cccc(C(=O)NCc2ccc(-c3cccc(C#N)c3)cc2)n1 [Compound 194],102 to 959 nM
9,CC(C)NC(=O)c1cccc(C(=O)NCc2ccc(-c3ccc(C#N)cc3)cc2)n1 [Compound 195],102 to 959 nM
10,CC(C)NC(=O)c1cccc(C(=O)NCc2ccc(-c3ccc(S(C)(=O)=O)cc3)cc2)n1 [Compound 196],102 to 959 nM
11,CC(C)NC(=O)c1cccc(C(=O)NCc2cnn(-c3ccc4nccn4c3)c2)n1 [Compound 210],4 to 97 nM
12,CC(C)NC(=O)c1cccc(C(=O)NCc2cnn(-c3cnc4nccn4c3)c2)n1 [Compound 213],102 to 959 nM
13,CC(C)NC(=O)c1cccc(C(=O)NCc2cnn(-c3ccc4cncnc4c3)c2)n1 [Compound 216],4 to 97 nM
14,CC(C)NC(=O)c1cccc(C(=O)NCc2cnn(-c3cnc4[nH]cnc4c3)c2)n1 [Compound 219],4 to 97 nM
15,Cc1nc2ccc(-n3cc(CNC(=O)c4cccc(C(=O)NC(C)C)n4)cn3)cc2n1C(C)C [Compound 228],4 to 97 nM and 4 to 19 nM
16,CC(C)NC(=O)c1cccc(C(=O)NCc2cnn(-c3ccc4nc(C(F)(F)F)n(C)c4c3)c2)n1 [Compound 234],4 to 19 nM and 4 to 97 nM
17,CC(C)NC(=O)c1cccc(C(=O)NCc2cnn(-c3ccc4nc(C(C)C)n(C)c4c3)c2)n1 [Compound 235],4 to 19 nM and 4 to 97 nM
18,CC(C)NC(=O)c1cccc(C(=O)NCc2cnn(-c3ccc4nc(-c5cccnc5)n(C)c4c3)c2)n1 [Compound 238],4 to 97 nM and 4 to 19 nM
19,CC(C)NC(=O)c1cccc(C(=O)NCc2cnn(-c3ccc(S(N)(=O)=O)cc3)c2)n1 [Compound 241],4 to 97 nM and 4 to 19 nM
20,CNS(=O)(=O)c1ccc(-n2cc(CNC(=O)c3cccc(C(=O)NC(C)C)n3)cn2)cc1 [Compound 244],4 to 19 nM and 4 to 97 nM
21,CC(C)NC(=O)c1cccc(C(=O)NCc2cnn(-c3ccc(S(=O)(=O)N4CCNCC4)cc3)c2)n1 [Compound 245],4 to 19 nM and 4 to 97 nM
22,CC(C)NC(=O)c1cccc(C(=O)NCc2cnn(-c3ccc(S(=O)(=O)N(C)C)c(Cl)c3)c2)n1 [Compound 246],4 to 19 nM and 4 nM and 4 to 97 nM
23,CC(C)NC(=O)c1cccc(C(=O)NCc2cnn(-c3ccc(S(=O)(=O)N4CCN(C(=O)OC(C)(C)C)CC4)c(Cl)c3)c2)n1 [Compound 247],4 to 97 nM

row,Structure (SMILES),IC50
1,CC(C)NC(=O)c1cccc(C(=O)NCc2cnn(-c3ccc(S(=O)(=O)N4CCNCC4)c(Cl)c3)c2)n1 [Compound 248],4 to 19 nM and 4 to 97 nM
2,Nc1nc2ccc(CNC(=O)c3cccc(NCc4ccccc4)n3)cc2s1 [Compound 263],> 1000 nM
3,Nc1nc2ccc(CNC(=O)c3cccc(-n4cccn4)n3)cc2s1 [Compound 264],102 to 959 nM
4,CS(=O)(=O)c1ccc(CNC(=O)c2cccc(C(=O)NC3CCN(c4ccccn4)CC3)n2)cc1 [Compound 273],102 to 959 nM
5,CSc1nccc(N2CCC(NC(=O)c3cccc(C(=O)NCc4ccc(S(C)(=O)=O)cc4)n3)CC2)n1 [Compound 274],> 1000 nM
6,CS(=O)(=O)c1ccc(CNC(=O)c2cccc(C(=O)NC3CCN(c4ccncc4)CC3)n2)cc1 [Compound 275],1030 to 10000 nM and > 1000 nM
7,CS(=O)(=O)c1ccc(CNC(=O)c2cccc(C(=O)NC3CCN(c4ccc5ccccc5n4)CC3)n2)cc1 [Compound 276],> 1000 nM
8,CC(C)NC(=O)c1cccc(-n2cc(I)cn2)n1 [Compound 287],> 1000 nM and 1030 to 10000 nM
9,O=C(Nc1cccnc1)c1cccc(-n2cc(I)cn2)n1 [Compound 288],> 1000 nM and 1030 to 10000 nM
10,O=C(NCc1cccnc1)c1cccc(-n2cc(I)cn2)n1 [Compound 289],102 to 959 nM
11,Cc1nc2ccc(CNC(=O)c3cccc(-n4cc(I)cn4)n3)cc2[nH]1 [Compound 290],102 to 959 nM
12,O=C(NCc1cnn(-c2ccccc2)c1)c1cccc(-n2cc(I)cn2)n1 [Compound 291],102 to 959 nM
13,CS(=O)(=O)c1ccc(-n2cc(CNC(=O)c3cccc(-n4cc(I)cn4)n3)cn2)cc1 [Compound 292],4 to 97 nM
14,CS(=O)(=O)c1ccc(-n2cc(CNC(=O)c3cccc(-n4cccn4)n3)cn2)cc1 [Compound 293],102 to 959 nM
15,CS(=O)(=O)c1ccc(-n2cc(CNC(=O)c3cccc(-n4cc(-c5cccc(F)c5)cn4)n3)cn2)cc1 [Compound 295],102 to 959 nM
16,CS(=O)(=O)c1ccc(-n2cc(CNC(=O)c3cccc(-n4cc(-c5ccc(F)cc5)cn4)n3)cn2)cc1 [Compound 296],102 to 959 nM
17,CS(=O)(=O)c1ccc(-n2cc(CNC(=O)c3cccc(-n4cc(-c5ccccn5)cn4)n3)cn2)cc1 [Compound 297],4 to 97 nM
18,CC(C)(C)c1nnc(-c2cccc(C(=O)NCc3cnn(-c4ccc(S(C)(=O)=O)cc4)c3)n2)o1 [Compound 302],102 to 959 nM
19,CC(C)(C)c1nnc(-c2cccc(C(=O)NCc3ccc(S(C)(=O)=O)cc3)n2)o1 [Compound 303],> 1000 nM and 1030 to 10000 nM
20,CC(C)NC(=O)c1cccc(C(=O)NCc2ccn(-c3ccc(S(C)(=O)=O)cc3)n2)n1 [Compound 309],102 to 959 nM
21,CC(C)NC(=O)c1cccc(C(=O)NCc2ccnn2-c2ccc(S(C)(=O)=O)cc2)n1 [Compound 310],> 1000 nM and 1030 to 10000 nM
22,CS(=O)(=O)c1ccc(CNC(=O)c2cccc(-n3cccn3)n2)cc1 [Compound 314],> 1000 nM
23,CS(=O)(=O)c1ccc(CNC(=O)c2cccc(-n3ccc(C(F)(F)F)n3)n2)cc1 [Compound 315],> 1000 nM and 1030 to 10000 nM

# The next lines start with the values.
row,IC50,Structure (SMILES)
1,102 to 959 nM,CC(C)NC(=O)c1cccc(C(=O)NCc2ccc(-c3cccc(Cl)c3)nc2)n1 [Compound 176]
2,102 to 959 nM,Cc1ccc(-c2ccc(CNC(=O)c3cccc(C(=O)NC(C)C)n3)cn2)cc1 [Compound 177]
3,102 to 959 nM,CC(C)NC(=O)c1cccc(C(=O)NCc2ccc(-c3cccc(C#N)c3)nc2)n1 [Compound 178]
4,102 to 959 nM,CC(C)NC(=O)c1cccc(C(=O)NCc2ccc(-c3ccc(C#N)cc3)nc2)n1 [Compound 179]
5,102 to 959 nM,CC(C)NC(=O)c1cccc(C(=O)NCc2ccc(-c3cccc(S(C)(=O)=O)c3)nc2)n1 [Compound 180]
6,102 to 959 nM,CC(C)NC(=O)c1cccc(C(=O)NCc2ccc(-c3ccc(Cl)cc3)nc2)n1 [Compound 182]
7,102 to 959 nM,CC(C)NC(=O)c1cccc(C(=O)NCc2ccc(-c3ccc(F)c(Cl)c3)nc2)n1 [Compound 184]
8,102 to 959 nM,CC(C)NC(=O)c1cccc(C(=O)NCc2ccc(-c3cc(Cl)cc(Cl)c3)nc2)n1 [Compound 185]
9,102 to 959 nM,CC(C)NC(=O)c1cccc(C(=O)NCc2ccc(-c3ccc4ncccc4c3)nc2)n1 [Compound 186]
10,4 to 97 nM,CNc1nc2ccc(CNC(=O)c3cccc(C(=O)NC(C)C)n3)cc2s1 [Compound 200]
11,4 to 97 nM,CC(C)NC(=O)c1cccc(C(=O)NCc2ccc3nc(NC(C)C)sc3c2)n1 [Compound 201]
12,4 to 97 nM,CC(C)NC(=O)c1cccc(C(=O)NCc2ccc3nc(NCCN4CCOCC4)sc3c2)n1 [Compound 202]
13,4 to 97 nM,CNCCNc1nc2ccc(CNC(=O)c3cccc(C(=O)NC(C)C)n3)cc2s1 [Compound 203]
14,4 to 97 nM,CCOC(=O)Nc1nc2ccc(CNC(=O)c3cccc(C(=O)NC(C)C)n3)cc2s1 [Compound 205]
15,4 to 97 nM,CC(C)NC(=O)c1cccc(C(=O)NCc2ccc3nc(NC(=O)N(C)C)sc3c2)n1 [Compound 207]
16,102 to 959 nM,CC(C)NC(=O)c1cccc(C(=O)NCc2cncc(Br)c2)n1 [Compound 254]
17,4 to 97 nM,CC(C)NC(=O)c1cccc(C(=O)NCc2cncc(-c3ccc(S(C)(=O)=O)cc3)c2)n1 [Compound 255]
18,4 to 97 nM,CC(C)NC(=O)c1cccc(C(=O)NCc2cncc(-c3cccc(S(C)(=O)=O)c3)c2)n1 [Compound 256]
19,4 to 97 nM,CC(C)NC(=O)c1cccc(C(=O)NCc2cncc(-c3ccc(C#N)cc3)c2)n1 [Compound 257]
20,4 to 97 nM,CC(C)NC(=O)c1cccc(C(=O)NCc2cncc(-c3cccc(C#N)c3)c2)n1 [Compound 258]
21,> 1000 nM,Nc1nc2ccc(CNC(=O)c3cccc(Cl)n3)cc2s1 [Compound 261]
22,> 1000 nM,COc1cccc(C(=O)NCc2ccc3nc(N)sc3c2)n1 [Compound 267]
